The numbers were not newly measured in US20200171149A1, “COMBINATION THERAPY FOR NON-SMALL CELL LUNG CANCER POSITIVE FOR EGFR MUTATION” (MEDIMMUNE LIMITED, priority 2015, published 2020), which cites them from elsewhere.

In data set [1] the test system is EGFR-TKI sensitizing and resistance T790M mutations. Conditions: preclinical models; Janne et al., J Clin Oncol 2014.
In the next data set the test system is tumor. The note with it: patients.
A further data set has as its system human T-cell activation. The note with it: in vitro.
Another data set has as its system xenograft model. Conditions: T-cell dependent mechanism.

In the case of `C=CC(=O)Nc1cc(Nc2nccc(-c3cn(C)c4ccccc34)n2)c(OC)cc1N(C)CCN(C)C` [AZD9291, N-(2-((2-(dimethylamino)ethyl)(methyl)amino)-4-methoxy-5-((4-(1-methyl-1H-indol-3-yl)pyrimidin-2-yl)amino)phenyl)acrylamide], the “Effectiveness against EGFR mutations” value in data set [1] is “effective against both EGFR-TKI sensitizing and resistance T790M mutations”. As for `COc1cc2ncnc(Nc3ccc(F)c(Cl)c3)c2cc1OCCCN1CCOCC1` [gefitinib, N-(3-chloro-4-fluorophenyl)-7-methoxy-6-(3-morpholinopropoxy)quinazolin-4-amine], the Tumor regression entry in the data set on tumor is given as “tumor regression in some patients”.

B1: MEDI4736: anti-PD-L1 antibody selective for PD-L1; light chain variable SEQ ID NO: 1, heavy chain variable SEQ ID NO: 2 (antibody, V domains shown)
VH: EVQLVESGGGLVQPGGSLRLSCAASGFTFSRYWMSWVRQAPGKGLEWVANIKQDGSEKYYVDSVKGRFTISRDNAKNSLYLQMNSLRAEDTAVYYCAREGGWFGELAFDYWGQGTLVTVSS
VL: EIVLTQSPGTLSLSPGERATLSCRASQRVSSSYLAWYQQKPGQAPRLLIYDASSRATGIPDRFSGSGSGTDFTLTISRLEPEDFAVYYCQQYGSLPWTFGQGTKVEIK
For B1, the “Relief of PD-L1-mediated suppression of human T-cell activation” value in the data set on human T-cell activation is reported as “can relieve PD-L-mediated suppression of human T-cell activation”. For the same molecule, the Tumor growth inhibition result in the data set on xenograft model is “inhibits tumor growth”.
